Paper PMC12797170, “Potent Competitive Inhibitors of Ecto-5′-nucleotidase (CD73) based on 6‑(Het)aryl-7-deazapurine Ribonucleoside 5′‑O‑Bisphosphonates” (ACS Pharmacology & Translational Science, 2025)
In brackets after ≈: the same amount, converted by molar mass.

Columns and labels:
in vitro [1] = details: mouse, plasma
in vitro [2] = details: human, plasma
[3] = Plasma protein binding, mouse plasma; format: in vitro ADME; details: mouse, plasma, mouse plasma protein binding; read-out: PPB (m) (converted)
Method: (§1) Plasma protein binding of the investigated compounds was determined using equilibrium dialysis in single-use Rapid Equilibrium Dialysis devices with an 8 kDa molecular weight cutoff (Thermo Fisher Scientific), following the manufacturer’s protocol. In brief, 50 μL of undiluted human plasma (Biowest), spiked with the test compound at a final concentration of 100 μM, was added to the sample chamber, while 300 μL of phosphate-buffered saline (PBS) was placed in the buffer chamber. Devices were incubated for 4 h at 37 °C with gentle shaking.
(§2) After dialysis, 7.5 μL aliquots from both the plasma and buffer chambers were transferred directly into wells of a 384-well plate. To equalize the matrices for downstream processing, 7.5 μL of PBS was added to each plasma aliquot, and 7.5 μL of plasma was added to each buffer aliquot. Proteins were precipitated by adding four volumes of ice-cold methanol to each well, followed by thorough mixing and incubation at – 20 °C for 30 min. Plates were then stored overnight at 8 °C. Prior to analysis, the plate was centrifuged at 2,000 × g for 20 min at 8 °C. […] The fraction of unbound compound was calculated using the following equations: %Free=c(bufferchamber)/c(plasmachamber)*100% %Bound=100%−%Free

HeLa S3 = assay: In vitro cytotoxic activity; format: cell-based; details: Homo sapiens
Method: (§3) All the compounds were also tested for their in vitro cytotoxic activity on a small panel of four cancer cell lines (CCRF-CEM, HepG2, HeLa S3, HL-60) and nonmalignant human dermal fibroblasts (NHDF).

[4] = system: nonmalignant human dermal fibroblasts (NHDF); assay: In vitro cytotoxic activity; format: cell-based
Method: as §3

CCRF-CEM = assay: In vitro cytotoxic activity; format: cell-based; details: Homo sapiens
Method: as §3

HepG2 = assay: In vitro cytotoxic activity; format: cell-based; details: Homo sapiens
Method: as §3

HL-60 = assay: In vitro cytotoxic activity; format: cell-based; details: Homo sapiens
Method: as §3

[5] = Kinetic solubility in PBS; format: physicochemical; details: phosphate-buffered saline, pH 7.4, aqueous buffer, kinetic from dmso stock
Method: Test compounds were prepared as 10 mM stock solutions in DMSO and diluted in phosphate-buffered saline (PBS, pH 7.4) to a 100 μM solution, which was then aliquoted in duplicate. The duplicate samples were incubated in Multiscreen PCF Filter Plates (Merck Millipore) with sealed bottom at room temperature on a shaker for 2 h to allow equilibration. Following incubation, the samples were centrifuged into nonsterile, flat-bottom 96-well plates at 2,200 RCF for 12 min. Supernatants were then diluted 1:99 in a solution of 50% acetonitrile containing 0.1% DMSO. The diluted samples were transferred to 384-well Echo plates, which contained prespotted calibration standards prepared by Echo transfer of 10 mM and 1 mM DMSO stock solutions, resulting in calibration points ranging from 0.05 to 4 μM. Samples and standards were subsequently analyzed by Echo-MS.

[6] = Plasma protein binding, equilibrium dialysis, human plasma; format: in vitro ADME; details: undiluted plasma, human plasma protein binding, read-out: PPB (hu) (converted)
Method: as §1, §2

[7] = biological target: T1, recombinant human CD73 (hCD73) (Homo sapiens, UniProt P21589); assay: CD73 activity assay on recombinant human CD73; format: biochemical; details: ΔGexp = RT ln Ki
T1 sequence (P21589 27-574): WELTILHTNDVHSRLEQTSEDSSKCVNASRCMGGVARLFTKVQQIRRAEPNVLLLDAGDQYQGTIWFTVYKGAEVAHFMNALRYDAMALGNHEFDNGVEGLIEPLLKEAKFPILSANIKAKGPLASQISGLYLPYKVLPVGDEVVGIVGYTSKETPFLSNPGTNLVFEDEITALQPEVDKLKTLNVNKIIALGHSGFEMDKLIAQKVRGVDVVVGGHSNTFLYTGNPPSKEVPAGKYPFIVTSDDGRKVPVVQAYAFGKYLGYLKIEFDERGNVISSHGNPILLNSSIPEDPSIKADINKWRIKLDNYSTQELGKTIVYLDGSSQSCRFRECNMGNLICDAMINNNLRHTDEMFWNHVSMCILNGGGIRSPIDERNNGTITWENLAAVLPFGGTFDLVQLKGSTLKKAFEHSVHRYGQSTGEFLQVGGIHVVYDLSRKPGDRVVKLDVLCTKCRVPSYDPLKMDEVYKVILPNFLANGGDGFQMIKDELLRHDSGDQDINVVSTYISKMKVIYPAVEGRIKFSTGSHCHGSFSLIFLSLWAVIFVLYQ

[8] = Microsomal stability assay, mouse liver microsomes; format: in vitro ADME; details: for Mics (m) comp remaining 60 min: 10 μM; for microsomal CLint at 10 µM: pooled liver microsomes, pH 7.4, read-out: Mics (m) CLint
[9] = Microsomal stability assay, human liver microsomes; format: in vitro ADME; details: for Mics (hu) comp remaining 60 min: 10 μM; for microsomal CLint at 10 µM: pooled liver microsomes, pH 7.4, read-out: Mics (hu) CLint

half-life at 10 µM (in vitro [1]) [h] | half-life at 10 µM (in vitro [2]) [h] | fraction unbound at 4 h, 100 µM [3] | solubility at 2 h [5] [µM] | fraction unbound at 4 h, 100 µM [6] | dG_exp, experimental binding free energy [7] | Mics (m) comp remaining 60 min [8] [%] | microsomal CLint at 10 µM [8] [µL/min/mg] | Mics (hu) comp remaining 60 min [9] [%] | microsomal CLint at 10 µM [9] [µL/min/mg] | SMILES | IC50 (HeLa S3) [µM] | IC50 [4] [µM] | IC50 (CCRF-CEM) [µM] | IC50 (HepG2) [µM] | IC50 (HL-60) [µM]
> 2 | > 2 | 0.685 | 85 (≈ 45.6 µg/mL) | 0.048 | –12.7 kcal/mol | 105 | < 1 | 94 | < 1 | O=P(O)(O)CP(=O)(O)OC[C@H]1O[C@@H](n2ccc3c(-c4ccc5ncccc5c4)ncnc32)[C@H](O)[C@@H]1O [4A.19] | > 10 | > 10 | > 10 | > 10 | 3.1
> 2 | > 2 | 0.536 | > 100 | 0.054 | –12.8 kcal/mol | 110 | < 1 | 88 | 2 | O=P(O)(O)CP(=O)(O)OC[C@H]1O[C@@H](n2ccc3c(-c4cnc5ccccc5c4)ncnc32)[C@H](O)[C@@H]1O [4A.20] | > 10 | > 10 | > 10 | > 10 | > 10
> 2 | > 2 | 0.737 | > 100 | 0.054 | –13.1 kcal/mol | 79 | 8 | 95 | 3 | O=P(O)(O)CP(=O)(O)OC[C@H]1O[C@@H](n2ccc3c(-c4ccc5cnccc5c4)ncnc32)[C@H](O)[C@@H]1O [4A.21] | > 10 | > 10 | > 10 | > 10 | 5.9
> 2 | > 2 | 0.948 | 66 (≈ 35.5 µg/mL) | 0.113 | –12.9 kcal/mol | 101 | < 1 | 92 | 4 | O=P(O)(O)CP(=O)(O)OC[C@H]1O[C@@H](n2ccc3c(-c4ccc5cncnc5c4)ncnc32)[C@H](O)[C@@H]1O [4A.22] | > 10 | > 10 | 9.9 | > 10 | 4.8
> 2 | > 2 | 0.229 | 86 (≈ 50.7 µg/mL) | ≤ 0.01 | –15.6 kcal/mol | 88 | 6 | 102 | < 1 | CC1(C)Cc2cc(-c3nc(Cl)nc4c3ccn4[C@@H]3O[C@H](COP(=O)(O)CP(=O)(O)O)[C@@H](O)[C@H]3O)ccc2O1 [7B.30] | > 10 | > 10 | > 10 | > 10 | > 10

Continued, compound first:

SMILES | half-life at 10 µM (in vitro [1]) [h] | half-life at 10 µM (in vitro [2]) [h] | fraction unbound at 4 h, 100 µM [3] | solubility at 2 h [5] [µM] | fraction unbound at 4 h, 100 µM [6] | dG_exp, experimental binding free energy [7] | Mics (m) comp remaining 60 min [8] [%] | microsomal CLint at 10 µM [8] [µL/min/mg] | Mics (hu) comp remaining 60 min [9] [%] | microsomal CLint at 10 µM [9] [µL/min/mg] | IC50 (HeLa S3) [µM] | IC50 [4] [µM] | IC50 (CCRF-CEM) [µM] | IC50 (HepG2) [µM] | IC50 (HL-60) [µM]
O=P(O)(O)CP(=O)(O)OC[C@H]1O[C@@H](n2ccc3c(-c4ccco4)ncnc32)[C@H](O)[C@@H]1O [4A.1, [(5-{[4-(Furan-2-yl)-7H-pyrrolo[2,3-d]pyrimidin-7-yl]-β-D-ribofuranosyl}oxy)phosphonomethyl]phosphonic Acid] | > 2 | > 2 | 0.699 | 25 (≈ 11.9 µg/mL) | 0.053 | –12.9 kcal/mol |  |  |  |  | > 10 | > 10 | > 10 | > 10 | 3.7
O=P(O)(O)CP(=O)(O)OC[C@H]1O[C@@H](n2ccc3c(-c4ccoc4)ncnc32)[C@H](O)[C@@H]1O [4A.2] | > 2 | > 2 | 0.872 | 97 (≈ 46.1 µg/mL) | 0.162 | –12.5 kcal/mol |  |  |  |  | > 10 | > 10 | > 10 | > 10 | 2.8
O=P(O)(O)CP(=O)(O)OC[C@H]1O[C@@H](n2ccc3c(-c4cccs4)ncnc32)[C@H](O)[C@@H]1O [4A.3] | > 2 | > 2 | 0.535 | 76 (≈ 37.3 µg/mL) | 0.081 | –13.1 kcal/mol |  |  |  |  | > 10 | > 10 | 9.9 | > 10 | 4.2
O=P(O)(O)CP(=O)(O)OC[C@H]1O[C@@H](n2ccc3c(-c4ccccc4)ncnc32)[C@H](O)[C@@H]1O [4A.5] | > 2 | > 2 | 0.788 | 80 (≈ 38.8 µg/mL) | 0.095 | –12.6 kcal/mol |  |  |  |  | > 10 | > 10 | > 10 | > 10 | 3.7
O=P(O)(O)CP(=O)(O)OC[C@H]1O[C@@H](n2ccc3c(-c4cccc5c4OCCC5)ncnc32)[C@H](O)[C@@H]1O [4A.13] | > 2 | > 2 | 0.594 | 81 (≈ 43.9 µg/mL) | 0.108 | –12.8 kcal/mol | 94 | 1 | 96 | 1 | > 10 | > 10 | > 10 | > 10 | > 10
O=P(O)(O)CP(=O)(O)OC[C@H]1O[C@@H](n2ccc3c(-c4ccc5c(c4)CCO5)ncnc32)[C@H](O)[C@@H]1O [4A.14] | > 2 | > 2 | 0.547 | > 100 | 0.062 | –12.9 kcal/mol | 94 | 3 | 112 | < 1 | > 10 | 5.6 | > 10 | 6.3 | 6.6
O=P(O)(O)CP(=O)(O)OC[C@H]1O[C@@H](n2ccc3c(-c4cccc5ccoc45)ncnc32)[C@H](O)[C@@H]1O [4A.15] | > 2 | > 2 | 0.542 | 76 (≈ 39.9 µg/mL) | 0.036 | –13.4 kcal/mol | 102 | < 1 | 118 | < 1 | > 10 | 5.7 | > 10 | 8.7 | 8.6
